Experimental data taken from patent US9505742B2, “3,4-dihydro-2H-isoquinoline-1-one and 2,3-dihydro-isoindol-1-one compounds” (Hoffmann-La Roche Inc., priority 2013, dated 2016).

Key:
human CYP11B2 = target: T1, human CYP11B2 (Homo sapiens, UniProt P19099); test: G-402 cellular enzyme assay, human CYP11B2 (aldosterone release, HTRF); type: cell-based; settings: G-402 cells expressing human CYP11B2; 1 μM Deoxycorticosterone
T1 construct: The expression plasmids contains the ORF for either human/cyno CYP11B1 or CYP11B2; expressed in transfected cells
T1 sequence (P19099 25-503): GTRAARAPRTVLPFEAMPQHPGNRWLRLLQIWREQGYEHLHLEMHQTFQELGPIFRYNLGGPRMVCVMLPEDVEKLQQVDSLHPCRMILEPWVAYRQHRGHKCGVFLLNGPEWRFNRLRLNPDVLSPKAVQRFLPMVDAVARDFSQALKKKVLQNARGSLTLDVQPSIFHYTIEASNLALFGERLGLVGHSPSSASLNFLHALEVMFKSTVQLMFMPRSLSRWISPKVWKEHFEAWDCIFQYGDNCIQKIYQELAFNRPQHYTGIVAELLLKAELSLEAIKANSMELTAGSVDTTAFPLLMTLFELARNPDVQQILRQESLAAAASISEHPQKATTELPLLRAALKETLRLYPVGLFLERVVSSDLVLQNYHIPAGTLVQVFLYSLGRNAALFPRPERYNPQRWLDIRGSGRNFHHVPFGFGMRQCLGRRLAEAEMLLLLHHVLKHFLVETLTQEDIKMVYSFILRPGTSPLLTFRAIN
Source text: (§1) Herein we identified the use of the G-402 cell line as a host cell to ectopically express (transiently or stably) enzymes of the CYP11 family. Specifically we developed stable G-402 cells expressing ectopically human CYP11B1, human CYP11B2, human CYP11A1, cynmolgus CYP11B1 or cynomolgus CYP11B2 enzyme activity. Importantly the identified cell line G-402 expresses co-factors (adrenodoxin and adrenodoxin reductase) important for the activity of the CYP11 family and no relevant enzyme activity of the CYP11 family (in comparison to H295R cells) was detected in these cells. Therefore the G-402 cell line is uniquely suited as a host cell for the ectopic expression of enzymes from the CYP11 family. G-402 cells can be obtained from ATCC (CRL-1440) and were originally derived from a renal leiomyoblastoma.
(§2) The expression plasmids contains the ORF for either human/cyno CYP11B1 or CYP11B2 under the control of a suitable promoter (CMV-promoter) and a suitable resistance marker (neomycin). Using standard techniques the expression plasmid is transfected into G-402 cells and these cells are then selected for expressing the given resistance markers. Individual cell-clones are then selected and assessed for displaying the desired enzymatic activity using 11-Deoxycorticosterone (Cyp11B2) or 11-Deoxycortisol (Cyp11B) as a substrate.
(§3) G-402 cells expressing CYP11 constructs were established as described above and maintained in McCoy's 5a Medium Modified, ATCC Catalog No. 30-2007 containing 10% FCS and 400 μg/ml G418 (Geneticin) at 37° C. under an atmosphere of 5% CO2/95% air. Cellular enzyme assays were performed in DMEM/F12 medium containing 2.5% charcoal treated FCS and appropriate concentration of substrate (0.3-10 uM 11-Deoxycorticosterone, 11-Deoxycortisol or Corticosterone). For assaying enzymatic activity, cells were plated onto 96 well plates and incubated for 16 h. An aliquot of the supernatant is then transferred and analyzed for the concentration of the expected product (Aldosterone for CYP11B2; Cortisol for CYP11B1). The concentrations of these steroids can be determined using HTRF assays from CisBio analyzing either Aldosterone or Cortisol.
(§4) Inhibition of the release of produced steroids can be used as a measure of the respective enzyme inhibition by test compounds added during the cellular enzyme assay. The dose dependent inhibition of enzymatic activity by a compound is calculated by means of plotting added inhibitor concentrations (x-axes) vs. measured steroid/product level (y-axes). The inhibition is then calculated by fitting the following 4-parameter sigmoidal function (Morgan-Mercer-Flodin (MMF) model) to the raw data points using the least squares method:
(§5) [formula] wherein, A is the maximum y value, B is the EC50 factor determined using XLFit, C is the minimum y value and D is the slope value.
(§6) EC50 values for compounds claimed herein were tested with the G402-based assay system described. Cyp11B2 enzyme activity was tested in presence of 1 μM Deoxycorticosterone and variable amounts of inhibitors; Cyp11B1 enzyme activity was tested in presence of 1 μM Deoxycortisol and variable amounts of inhibitors.

human CYP11B1 = target: T2, human CYP11B1 (Homo sapiens, UniProt P15538); test: G-402 cellular enzyme assay, human CYP11B1 (cortisol release, HTRF); type: cell-based; settings: G-402 cells expressing human CYP11B1; 1 μM Deoxycortisol
T2 construct: The expression plasmids contains the ORF for either human/cyno CYP11B1 or CYP11B2; expressed in transfected cells
T2 sequence (P15538 25-503): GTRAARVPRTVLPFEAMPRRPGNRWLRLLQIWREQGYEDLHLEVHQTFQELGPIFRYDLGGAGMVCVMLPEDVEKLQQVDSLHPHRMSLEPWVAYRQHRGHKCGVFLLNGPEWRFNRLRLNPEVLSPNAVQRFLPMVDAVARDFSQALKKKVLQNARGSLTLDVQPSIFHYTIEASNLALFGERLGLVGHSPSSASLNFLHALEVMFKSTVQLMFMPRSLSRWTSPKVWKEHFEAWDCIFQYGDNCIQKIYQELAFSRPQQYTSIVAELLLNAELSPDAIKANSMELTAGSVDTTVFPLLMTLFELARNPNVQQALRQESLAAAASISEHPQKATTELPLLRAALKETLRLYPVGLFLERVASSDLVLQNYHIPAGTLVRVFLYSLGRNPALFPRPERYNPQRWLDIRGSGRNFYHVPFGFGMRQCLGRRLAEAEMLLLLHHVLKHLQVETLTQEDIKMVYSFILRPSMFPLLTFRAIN
Source text: as §1, §2, §3, §4, §5, §6

SMILES | EC50 (human CYP11B2) [nM] | EC50 (human CYP11B1) [nM]
Cc1ccncc1C(=O)N1CCC(c2cncc(N3C(=O)c4ccc(Cl)cc4[C@H]3C)c2)CC1 (single isomer, unassigned) [Example 28, (+)-(3R or 3S)-5-chloro-3-methyl-2-[5-[1-(4-methylpyridine-3-carbonyl)piperidin-4-yl]pyridin-3-yl]-3H-isoindol-1-one] | 4 | 167
CCS(=O)(=O)N1CCC(c2cncc(N3C(=O)c4ccc(Cl)cc4C3(C)C)c2)CC1 [Example 2, 5-Chloro-2-[5-(1-ethylsulfonylpiperidin-4-yl)pyridin-3-yl]-3,3-dimethylisoindol-1-one] | 2 | 290
CCCS(=O)(=O)N1CC(c2cncc(N3C(=O)c4ccc(Cl)cc4C3(C)C)c2)C1 [Example 34, 5-Chloro-3,3-dimethyl-2-[5-(1-propylsulfonylazetidin-3-yl)pyridin-3-yl]isoindol-1-one] | 13 | 492
CC(C)S(=O)(=O)N1CCC(c2cncc(N3C(=O)c4ccc(Cl)cc4C3(C)C)c2)CC1 [Example 16, 5-Chloro-3,3-dimethyl-2-[5-(1-propan-2-ylsulfonylpiperidin-4-yl)pyridin-3-yl]isoindol-1-one] | 4 | 1190
CC(=O)N1CC(c2cncc(N3C(=O)c4ccc(Cl)cc4C3(C)C)c2)C1 [Example 33, 2-[5-(1-Acetylazetidin-3-yl)pyridin-3-yl]-5-chloro-3,3-dimethylisoindol-1-one] | 148 | 4550
CCS(=O)(=O)N1CCC(F)(c2cncc(N3C(=O)c4ccc(Cl)cc4C3(C)C)c2)CC1 [Example 30, 5-Chloro-2-[5-(1-ethylsulfonyl-4-fluoropiperidin-4-yl)pyridin-3-yl]-3,3-dimethylisoindol-1-one] | 1 | 153
CC(C)S(=O)(=O)N1CCC(F)(c2cncc(N3C(=O)c4ccc(Cl)cc4C3(C)C)c2)C1 (stereo not drawn) [Example 14, 5-Chloro-2-[5-(3-fluoro-1-propan-2-ylsulfonylpyrrolidin-3-yl)pyridin-3-yl]-3,3-dimethylisoindol-1-one] | 4 | 232
COc1ccc2c(n1)C(C)(C)N(c1cncc(C3(F)CCN(S(=O)(=O)C(C)C)CC3)c1)C2=O [Example 42, 6-[5-(4-Fluoro-1-isopropylsulfonyl-4-piperidyl)-3-pyridyl]-2-methoxy-7,7-dimethyl-pyrrolo[3,4-b]pyridin-5-one] | 34 | 8070
CC1(C)c2cc(Cl)ccc2C(=O)N1c1cncc(C2CCN(C(=O)c3ncccc3Cl)CC2)c1 [Example 20, 5-Chloro-2-[5-[1-(3-chloropyridine-2-carbonyl)piperidin-4-yl]pyridin-3-yl]-3,3-dimethylisoindol-1-one] | 8 | 488
CC(C)S(=O)(=O)N1CCC(F)(c2cncc(N3C(=O)c4ccc(C#N)cc4C3(C)C)c2)CC1 [Example 39, 2-[5-(4-Fluoro-1-isopropylsulfonyl-4-piperidyl)-3-pyridyl]-3,3-dimethyl-1-oxo-isoindoline-5-carbonitrile] | 9 | 1850
CC(C)S(=O)(=O)N1CCC(F)(c2cncc(N3C(=O)c4ccc(Cl)cc4C3(C)C)c2)CC1 [Example 31, 5-Chloro-2-[5-(4-fluoro-1-propan-2-ylsulfonylpiperidin-4-yl)pyridin-3-yl]-3,3-dimethylisoindol-1-one] | 1.5 | 772
CC1(C)c2cc(Cl)ccc2C(=O)N1c1cncc(C2(F)CCN(S(=O)(=O)C3CC3)CC2)c1 [Example 38, 5-Chloro-2-[5-(1-cyclopropylsulfonyl-4-fluoro-4-piperidyl)-3-pyridyl]-3,3-dimethyl-isoindolin-1-one] | 1 | 575
CCS(=O)(=O)N1CCC(F)(c2cncc(N3C(=O)c4ccc(OC)nc4C3(C)C)c2)CC1 [Example 40, 6-[5-(1-Ethylsulfonyl-4-fluoro-4-piperidyl)-3-pyridyl]-2-methoxy-7,7-dimethyl-pyrrolo[3,4-b]pyridin-5-one] | 19 | 2420
CC(C)S(=O)(=O)N1CCC(c2cncc(N3Cc4cc(Cl)ccc4C3=O)c2)CC1 [Example 22, 5-Chloro-2-[5-(1-propan-2-ylsulfonylpiperidin-4-yl)pyridin-3-yl]-3H-isoindol-1-one] | 84 | 7340
CCS(=O)(=O)N1CCC(c2cncc(N3C(=O)c4ccc(Cl)cc4[C@@H]3C)c2)CC1 (single isomer, unassigned) [Example 25, (−)-(3S or 3R)-5-chloro-2-[5-(1-ethylsulfonylpiperidin-4-yl)pyridin-3-yl]-3-methyl-3H-isoindol-1-one] | 2 | 107
CC1(C)c2cc(Cl)ccc2C(=O)N1c1cncc(C2CCN(S(=O)(=O)C3CC3)CC2)c1 [Example 17, 5-Chloro-2-[5-(1-cyclopropylsulfonylpiperidin-4-yl)pyridin-3-yl]-3,3-dimethylisoindol-1-one] | 3 | 1000
Cc1ccncc1C(=O)N1CC(c2cncc(N3C(=O)c4ccc(Cl)cc4C3(C)C)c2)C1 [Example 36, 5-Chloro-3,3-dimethyl-2-[5-[1-(4-methylpyridine-3-carbonyl)azetidin-3-yl]pyridin-3-yl]isoindol-1-one] | 18 | 1400
CCCS(=O)(=O)N1CCC(F)(c2cncc(N3C(=O)c4ccc(OC)nc4C3(C)C)c2)CC1 [Example 43, 6-[5-(4-Fluoro-1-propylsulfonyl-4-piperidyl)-3-pyridyl]-2-methoxy-7,7-dimethyl-pyrrolo[3,4-b]pyridin-5-one] | 21 | 1900
COc1ccc2c(n1)C(C)(C)N(c1cncc(C3(F)CCN(C(=O)c4nccn4C)CC3)c1)C2=O [Example 44, 6-[5-[4-Fluoro-1-(1-methylimidazole-2-carbonyl)-4-piperidyl]-3-pyridyl]-2-methoxy-7,7-dimethyl-pyrrolo[3,4-b]pyridin-5-one] | 4 | 8
CC1(C)c2cc(Cl)ccc2C(=O)N1c1cncc(C2CCN(S(C)(=O)=O)CC2)c1 [Example 3, 5-Chloro-3,3-dimethyl-2-[5-(1-methylsulfonylpiperidin-4-yl)pyridin-3-yl]isoindol-1-one] | 2 | 53
COc1ccc2c(n1)C(C)(C)N(c1cncc(C3CCN(C(=O)c4cnn(C)c4)CC3)c1)C2=O [Example 47, 2-Methoxy-7,7-dimethyl-6-[5-[1-(1-methylpyrazole-4-carbonyl)-4-piperidyl]-3-pyridyl]pyrrolo[3,4-b]pyridin-5-one] | 41 | 573
